Tests used:
[1] = Whole blood stability assay; format: in vitro ADME; settings: fresh whole blood, drug final concentration 1 μM, 37° C., 180 minutes
Description: Whole Blood Stability Assay
A whole blood stability assay was performed using fresh blood with a drug final concentration of 1 μM. The drug-blood mixtures were incubated at 37° C. for 180 minutes.

[2] = target: K-Ras G12C (Homo sapiens (Human), UniProt P01116, G12C); assay: Western blot assay for in cell alkylation of K-Ras G12C (HCC1171 cells); format: cell-based; settings: 18 hours at 37° C., 7 point dose response
Description: HCC1171 cells were maintained in RPMI1640 supplemented with 10% FBS. Cells were plated in a 96-well plate at 20,000 cells/well and the following day compounds were added to the cells. After 18 hours at 37° C., cells were lysed in RIPA buffer (Sigma RO278) with 0.5% SDS and protease/phosphatase inhibitor cocktail. After through mixing to enable complete lysis, the lysates were cleared by centrifugation before 20 µl was transferred from each well and combined with loading buffer and reducing agent. After heating for 10 minutes at 95° C., […] of each sample was loaded onto a 4-20% Tris-Glycine gel and electrophoresed at 110V for 165 minutes in SDS-PAGE running buffer. Gels were transferred to a nitrocellulose membrane, blocked for 1 hour and stained overnight at 4° C. with primary antibody against K-Ras (polyclonal Proteintech 12063-1-AP). The membrane was then washed thoroughly and counterstained with anti-rabbit IRDye 800CW (LI-COR 926-32211) for one hour at room temperature. After final washes, the membrane was imaged on a LI-COR Odyssey CLx at medium resolution. […] To quantify this affect, the LICOR software was used to draw a rectangle over alkylated and unalkylated bands for each well and measured the total fluorescent intensity (FI) in each of these bands. The following formula was then used to calculate % alkylation: FI(alkylated)/(FI(alkylated)+FI(unalkylated))*100 for each well.
A 7 point dose response curve was used to determine the IC50 for each compound. Cell alkylation data are presented below in Table 3.

Chain of K-Ras G12C (P01116 other isoform, or with tags, fused parts or gaps G12C): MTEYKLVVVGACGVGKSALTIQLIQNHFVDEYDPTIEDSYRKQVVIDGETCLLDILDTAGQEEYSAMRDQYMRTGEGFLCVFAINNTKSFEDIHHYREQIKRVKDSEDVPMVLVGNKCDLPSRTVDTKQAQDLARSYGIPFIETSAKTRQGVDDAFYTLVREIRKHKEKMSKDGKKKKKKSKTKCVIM

SMILES | half-life at 1 μM [1] [h] | EC50 [2] [nM]
C=CC(=O)N1CCN(c2ncnc3c(F)c(-c4nc(N)cc(C)c4C(F)(F)F)c(Cl)cc23)[C@@H](C)C1 [Example 19, 1-((3S)-4-(7-(6-amino-4-methyl-3-(trifluoromethyl)pyridin-2-yl)-6-chloro-8-fluoroquinazolin-4-yl)-3-methylpiperazin-1-yl)prop-2-en-1-one] | 2.67 | 
C=CC(=O)N1CCN(c2nc(OC[C@@H]3CCCN3C)nc3cc(-c4nc(N)cc(C)c4C(F)(F)F)c(Cl)cc23)[C@@H](C)C1 [Example 61, 1-((S)-4-(7-(6-amino-4-methyl-3-(trifluoromethyl)pyridin-2-yl)-6-chloro-2-(((S)-1-methylpyrrolidin-2-yl)methoxy)quinazolin-4-yl)-3-methylpiperazin-1-yl)prop-2-en-1-one] | 2.67 | 2
Cc1cc(N)nc(-c2cc3nc(OC[C@@H]4CCCN4C)nc(N4CCN(C(=O)/C=C/C(F)F)C[C@@H]4C)c3cc2Cl)c1C(F)(F)F [Example 65, (E)-1-((S)-4-(7-(6-amino-4-methyl-3-(trifluoromethyl)pyridin-2-yl)-6-chloro-2-(((S)-1-methylpyrrolidin-2-yl)methoxy)quinazolin-4-yl)-3-methylpiperazin-1-yl)-4,4-difluorobut-2-en-1-one] | 0.617 | 7.6
C=CC(=O)N1CCN(c2nc(OC[C@@H]3C[C@@H](F)CN3C)nc3c(F)c(-c4nc(N)cc(C)c4C(F)(F)F)c(Cl)cc23)[C@@H](C)C1 [Example 69, 1-[(3S)-4-[7-[6-amino-4-methyl-3-(trifluoromethyl)-2-pyridyl]-6-chloro-8-fluoro-2-[[(2S,4R)-4-fluoro-1-methyl-pyrrolidin-2-yl]methoxy]quinazolin-4-yl]-3-methyl-piperazin-1-yl]prop-2-en-1-one] | > 9 | 1
C=CC(=O)N1CCN(c2nc(OC[C@@H]3CCCN3C)nc3cc(-c4nc(N)ccc4C(F)(F)F)c(Cl)cc23)CC1 [Example 70, (S)-1-(4-(7-(6-amino-3-(trifluoromethyl)pyridin-2-yl)-6-chloro-2-((1-methylpyrrolidin-2-yl)methoxy)quinazolin-4-yl)piperazin-1-yl)prop-2-en-1-one] | 1.02 | 19
C=CC(=O)N1CCN(c2nc(OC[C@@H]3C[C@@H](OCC)CN3C)nc3cc(-c4nc(N)ccc4C(F)(F)F)c(Cl)cc23)CC1 [Example 71, 1-(4-(7-(6-amino-3-(trifluoromethyl)pyridin-2-yl)-6-chloro-2-(((2S,4R)-4-ethoxy-1-methylpyrrolidin-2-yl)methoxy)quinazolin-4-yl)piperazin-1-yl)prop-2-en-1-one] | 1.52 | 18
C=CC(=O)N1CCN(c2nc(OCCN3CC(CF)C3)nc3cc(-c4nc(N)ccc4C(F)(F)F)c(Cl)cc23)CC1 [Example 76, 1-(4-(7-(6-amino-3-(trifluoromethyl)pyridin-2-yl)-6-chloro-2-(2-(3-(fluoromethyl)azetidin-1-yl)ethoxy)quinazolin-4-yl)piperazin-1-yl)prop-2-en-1-one] |  | 140
C=CC(=O)N1CCN(c2nc(OC[C@@H]3[C@@H](F)CCN3C)nc3cc(-c4nc(N)ccc4C(F)(F)F)c(Cl)cc23)CC1 [Example 77, 1-[4-[7-[6-amino-3-(trifluoromethyl)-2-pyridyl]-6-chloro-2-[[(2R,3S)-3-fluoro-1-methyl-pyrrolidin-2-yl]methoxy]quinazolin-4-yl]piperazin-1-yl]prop-2-en-1-one] |  | 25
C=CC(=O)N1CCN(c2nc(OC[C@@H]3[C@H]4C[C@H]4CN3C)nc3cc(-c4nc(N)ccc4C(F)(F)F)c(Cl)cc23)CC1 [Example 78a, 1-(4-(7-(6-amino-3-(trifluoromethyl)pyridin-2-yl)-6-chloro-2-(((1S,2S,5R)-3-methyl-3-azabicyclo[3.1.0]hexan-2-yl)methoxy)quinazolin-4-yl)piperazin-1-yl)prop-2-en-1-one] |  | 56
C=CC(=O)N1CCN(c2nc(OC[C@@H]3[C@@H]4C[C@@H]4CN3C)nc3cc(-c4nc(N)ccc4C(F)(F)F)c(Cl)cc23)CC1 [Example 78b, 1-(4-(7-(6-amino-3-(trifluoromethyl)pyridin-2-yl)-6-chloro-2-(((1R,2S,5S)-3-methyl-3-azabicyclo[3.1.0]hexan-2-yl)methoxy)quinazolin-4-yl)piperazin-1-yl)prop-2-en-1-one] |  | 40
C=CC(=O)N1CCN(c2nc(OCC3CCC(COC)N3C)nc3cc(-c4nc(N)ccc4C(F)(F)F)c(Cl)cc23)CC1 (stereo not shown) [Example 80, 1-(4-(7-(6-amino-3-(trifluoromethyl)pyridin-2-yl)-6-chloro-2-((5-(methoxymethyl)-1-methylpyrrolidin-2-yl)methoxy)quinazolin-4-yl)piperazin-1-yl)prop-2-en-1-one] |  | 71
C=CC(=O)N1CCN(c2nc(OC[C@@H]3CCCN3C3COC3)nc3cc(-c4nc(N)ccc4C(F)(F)F)c(Cl)cc23)CC1 [Example 87, 1-[4-[7-[6-amino-3-(trifluoromethyl)-2-pyridyl]-6-chloro-2-[[(2S)-1-(oxetan-3-yl)pyrrolidin-2-yl]methoxy]quinazolin-4-yl]piperazin-1-yl]prop-2-en-1-one] |  | 180

Continued, values first:

half-life at 1 μM [1] [h] | EC50 [2] [nM] | SMILES
 | 240 | C=CC(=O)N1CCN(c2nc(OCC3(N(C)C)CC3)nc3cc(-c4nc(N)ccc4C(F)(F)F)c(Cl)cc23)CC1 [Example 88, 1-(4-(7-(6-amino-3-(trifluoromethyl)pyridin-2-yl)-6-chloro-2-((1-(dimethylamino)cyclopropyl)methoxy)quinazolin-4-yl)piperazin-1-yl)prop-2-en-1-one]
 | 29 | C=CC(=O)N1CCN(c2nc(OC[C@@H]3C[C@@H](F)CN3CCOC)nc3cc(-c4nc(N)ccc4C(F)(F)F)c(Cl)cc23)CC1 [Example 89, 1-[4-[7-[6-amino-3-(trifluoromethyl)-2-pyridyl]-6-chloro-2-[[(2S,4R)-4-fluoro-1-(2-methoxyethyl)pyrrolidin-2-yl]methoxy]quinazolin-4-yl]piperazin-1-yl]prop-2-en-1-one]
 | 55 | C=CC(=O)N1CCN(c2nc(OC[C@@H]3C[C@@H](F)[C@H](C)N3C)nc3cc(-c4nc(N)ccc4C(F)(F)F)c(Cl)cc23)CC1 [Example 90, 1-[4-[7-[6-amino-3-(trifluoromethyl)-2-pyridyl]-6-chloro-2-[[(2S,4R,5S)-4-fluoro-1,5-dimethyl-pyrrolidin-2-yl]methoxy]quinazolin-4-yl]piperazin-1-yl]prop-2-en-1-one]
 | 40 | C=CC(=O)N1CCN(c2nc(OC[C@@H]3CCCN3CCOC)nc3cc(-c4nc(N)ccc4C(F)(F)F)c(Cl)cc23)CC1 [Example 91, 1-[4-[7-[6-amino-3-(trifluoromethyl)-2-pyridyl]-6-chloro-2-[[(2S)-1-(2-methoxyethyl)pyrrolidin-2-yl]methoxy]quinazolin-4-yl]piperazin-1-yl]prop-2-en-1-one]
3 | 18 | C=CC(=O)N1CCN(c2nc(OC[C@@H]3C[C@@H](OC(F)F)CN3C)nc3cc(-c4nc(N)ccc4C(F)(F)F)c(Cl)cc23)CC1 [Example 92, 1-[4-[7-[6-amino-3-(trifluoromethyl)-2-pyridyl]-6-chloro-2-[[(2S,4R)-4-(difluoromethoxy)-1-methyl-pyrrolidin-2-yl]methoxy]quinazolin-4-yl]piperazin-1-yl]prop-2-en-1-one]
 | 130 | C=CC(=O)N1CCN(c2nc(OC[C@@H]3CCCN3)nc3c(F)c(-c4nc(N)cc(C)c4C(F)(F)F)c(Cl)cc23)[C@@H](C)C1 [Example 93, 1-((3S)-4-(7-(6-amino-4-methyl-3-(trifluoromethyl)pyridin-2-yl)-6-chloro-8-fluoro-2-(((S)-pyrrolidin-2-yl)methoxy)quinazolin-4-yl)-3-methylpiperazin-1-yl)prop-2-en-1-one]
 | 22 | C=CC(=O)N1CCN(c2nc(OCC3(C)C[C@@H](F)CN3C)nc3cc(-c4nc(N)ccc4C(F)(F)F)c(Cl)cc23)CC1 (stereo partly drawn) [Example 96, 1-[4-[7-[6-amino-3-(trifluoromethyl)-2-pyridyl]-6-chloro-2-[[(4R)-4-fluoro-1,2-dimethyl-pyrrolidin-2-yl]methoxy]quinazolin-4-yl]piperazin-1-yl]prop-2-en-1-one]

Source: US11236068B2, “Fused ring compounds” (Genentech, Inc., priority 2018, dated 2022)
